By IC50 is commonly meant the concentration that inhibits the measured activity by half. Higher therefore signals lower potency.

Assay [1] has as its target T1, 5α-reductase type 2 (Homo sapiens, UniProt P31213).
T1 sequence (P31213 1-254): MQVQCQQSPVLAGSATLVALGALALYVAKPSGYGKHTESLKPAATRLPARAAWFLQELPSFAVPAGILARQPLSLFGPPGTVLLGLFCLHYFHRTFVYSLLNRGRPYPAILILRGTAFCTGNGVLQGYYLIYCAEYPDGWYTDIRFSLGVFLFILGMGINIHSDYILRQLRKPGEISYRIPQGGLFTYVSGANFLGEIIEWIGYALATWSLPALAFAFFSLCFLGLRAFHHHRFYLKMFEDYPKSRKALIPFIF
The format is cell-based.

Assay [2] has as its target T2, 5α-reductase type 1 (Homo sapiens, UniProt P18405).
T2 sequence (P18405 1-259): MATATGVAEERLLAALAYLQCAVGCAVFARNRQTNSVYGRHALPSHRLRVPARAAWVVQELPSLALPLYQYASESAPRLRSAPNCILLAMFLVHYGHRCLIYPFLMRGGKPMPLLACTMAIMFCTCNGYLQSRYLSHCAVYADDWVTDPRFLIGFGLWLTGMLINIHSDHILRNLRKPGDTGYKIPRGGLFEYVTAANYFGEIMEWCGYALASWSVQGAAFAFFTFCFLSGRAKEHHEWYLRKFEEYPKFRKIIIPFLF
It counts as cell-based.

Take `CC(C)(C)NC(=O)[C@H]1CC[C@H]2[C@@H]3CC[C@H]4NC(=O)C=C[C@]4(C)[C@H]3CC[C@]12C` [finasteride]: the IC50 in assay [1] was approximately 100 nM; in assay [2] it was approximately 800 nM.

Values taken from PMC3459575 (Clinical Interventions in Aging, 2012).
